Results from PubChem BioAssay (NCI).
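Compound exposure: 48 hours, 5 concentrations, 96-well plates. At the GI50, growth is halved. TGI: concentration producing complete growth inhibition.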

Tests used:
Assay in all cases: inhibition of tumour cell growth, NCI panel, 48 h; in the data active = GI50 below about 0.43 µM; inactive = the rest
IGROV1 ovarian = tested on: IGROV1 ovarian
COLO 205 colon = tested on: COLO 205 colon
MOLT-4 leukemia = tested on: MOLT-4 leukemia
OVCAR-5 ovarian = tested on: OVCAR-5 ovarian
MALME-3M melanoma = tested on: MALME-3M melanoma
SF-295 CNS = tested on: SF-295 CNS
ACHN renal = tested on: ACHN renal
SNB-19 CNS = tested on: SNB-19 CNS
HOP-92 NSCLC = tested on: HOP-92 NSCLC
CAKI-1 renal = tested on: CAKI-1 renal
MCF7 breast = tested on: MCF7 breast
HCC-2998 colon = tested on: HCC-2998 colon
RXF 393 renal = tested on: RXF 393 renal
SF-268 CNS = tested on: SF-268 CNS
UACC-62 melanoma = tested on: UACC-62 melanoma
K-562 leukemia = tested on: K-562 leukemia
HOP-62 NSCLC = tested on: HOP-62 NSCLC
786-0 renal = tested on: 786-0 renal
SK-OV-3 ovarian = tested on: SK-OV-3 ovarian
A549 NSCLC = tested on: A549 NSCLC
SNB-75 CNS = tested on: SNB-75 CNS
EKVX NSCLC = tested on: EKVX NSCLC
HL-60(TB) leukemia = tested on: HL-60(TB) leukemia
OVCAR-8 ovarian = tested on: OVCAR-8 ovarian
TK-10 renal = tested on: TK-10 renal
SK-MEL-28 melanoma = tested on: SK-MEL-28 melanoma
PC-3 prostate = tested on: PC-3 prostate
U251 CNS = tested on: U251 CNS
LOX IMVI melanoma = tested on: LOX IMVI melanoma
DU-145 prostate = tested on: DU-145 prostate
SR leukemia = tested on: SR leukemia
SW-620 colon = tested on: SW-620 colon
SK-MEL-5 melanoma = tested on: SK-MEL-5 melanoma
HCT-116 colon = tested on: HCT-116 colon
SN12C renal = tested on: SN12C renal
NCI-H226 lung = tested on: NCI-H226 lung
BT-549 breast = tested on: BT-549 breast
UACC-257 melanoma = tested on: UACC-257 melanoma
HCT-15 colon = tested on: HCT-15 colon
SK-MEL-2 melanoma = tested on: SK-MEL-2 melanoma
MDA-MB-435 = tested on: MDA-MB-435
HT29 colon = tested on: HT29 colon
RPMI-8226 leukemia = tested on: RPMI-8226 leukemia
OVCAR-3 ovarian = tested on: OVCAR-3 ovarian
SF-539 CNS = tested on: SF-539 CNS
MDA-MB-231 breast = tested on: MDA-MB-231 breast
KM12 colon = tested on: KM12 colon
M14 melanoma = tested on: M14 melanoma
OVCAR-4 ovarian = tested on: OVCAR-4 ovarian
NCI-H23 lung = tested on: NCI-H23 lung
A498 renal = tested on: A498 renal
NCI-H460 lung = tested on: NCI-H460 lung
MDA-MB-468 breast = tested on: MDA-MB-468 breast
CCRF-CEM leukemia = tested on: CCRF-CEM leukemia
NCI/ADR-RES ovarian = tested on: NCI/ADR-RES ovarian
UO-31 renal = tested on: UO-31 renal
T-47D breast = tested on: T-47D breast

COc1cc2c(cc1OC)/C(=C\c1sc(Nc3ccc(O)cc3)nc1O)C(C(=O)O)=N2
26000 nM: TGI (HT29 colon)
63300 nM: TGI (MDA-MB-231 breast)
30000 nM: TGI (M14 melanoma)
9070 nM: TGI (COLO 205 colon)
75000 nM: TGI (BT-549 breast)
2760 nM: TGI (SF-539 CNS)
14100 nM: TGI (SF-295 CNS)
59100 nM: TGI (HOP-62 NSCLC)
28400 nM: TGI (SK-MEL-5 melanoma)
2950 nM: TGI (SNB-75 CNS)
45100 nM: TGI (786-0 renal)
33300 nM: TGI (DU-145 prostate)
3210 nM: TGI (RXF 393 renal)
986 nM: TGI (HL-60(TB) leukemia)
797 nM: TGI (OVCAR-3 ovarian)
27800 nM: TGI (SNB-19 CNS)
389 nM: TGI (MDA-MB-435)
> 100000 nM: TGI (IGROV1 ovarian) | TGI (MOLT-4 leukemia) | TGI (OVCAR-5 ovarian) | TGI (MALME-3M melanoma) | TGI (ACHN renal) | TGI (CAKI-1 renal) | TGI (MCF7 breast) | TGI (HCC-2998 colon) | TGI (SF-268 CNS) | TGI (UACC-62 melanoma) | TGI (K-562 leukemia) | TGI (SK-OV-3 ovarian) | TGI (A549 NSCLC) | TGI (EKVX NSCLC) | TGI (OVCAR-8 ovarian) | TGI (TK-10 renal) | TGI (SK-MEL-28 melanoma) | TGI (PC-3 prostate) | TGI (LOX IMVI melanoma) | TGI (SR leukemia) | TGI (SW-620 colon) | TGI (HCT-116 colon) | TGI (SN12C renal) | TGI (NCI-H226 lung) | TGI (UACC-257 melanoma) | TGI (HCT-15 colon) | TGI (RPMI-8226 leukemia) | TGI (KM12 colon) | TGI (OVCAR-4 ovarian) | TGI (A498 renal) | TGI (NCI-H460 lung) | TGI (CCRF-CEM leukemia) | TGI (NCI/ADR-RES ovarian) | TGI (UO-31 renal) | TGI (T-47D breast)
41800 nM: TGI (NCI-H23 lung)
inactive: GI50 (IGROV1 ovarian) 2700 nM | GI50 (COLO 205 colon) 1440 nM | GI50 (MOLT-4 leukemia) 446 nM | GI50 (OVCAR-5 ovarian) 4510 nM | GI50 (SF-295 CNS) 498 nM | GI50 (ACHN renal) 6530 nM | GI50 (SNB-19 CNS) 462 nM | GI50 (HOP-92 NSCLC) 5890 nM | GI50 (CAKI-1 renal) 95500 nM | GI50 (HCC-2998 colon) 631 nM | GI50 (RXF 393 renal) 527 nM | GI50 (SF-268 CNS) 581 nM | GI50 (UACC-62 melanoma) 498 nM | GI50 (HOP-62 NSCLC) 620 nM | GI50 (786-0 renal) 513 nM | GI50 (SK-OV-3 ovarian) 817 nM | GI50 (A549 NSCLC) 21600 nM | GI50 (EKVX NSCLC) 11200 nM | GI50 (OVCAR-8 ovarian) 775 nM | GI50 (TK-10 renal) 5730 nM | GI50 (SK-MEL-28 melanoma) 842 nM | GI50 (PC-3 prostate) 666 nM | GI50 (LOX IMVI melanoma) 501 nM | GI50 (DU-145 prostate) 588 nM | GI50 (SW-620 colon) 449 nM | GI50 (SK-MEL-5 melanoma) 510 nM | GI50 (HCT-116 colon) 489 nM | GI50 (SN12C renal) 2050 nM | GI50 (NCI-H226 lung) 16600 nM | GI50 (BT-549 breast) 654 nM | GI50 (UACC-257 melanoma) 1910 nM | GI50 (HCT-15 colon) 783 nM | GI50 (SK-MEL-2 melanoma) 586 nM | GI50 (HT29 colon) 2830 nM | GI50 (RPMI-8226 leukemia) 5170 nM | GI50 (SF-539 CNS) 456 nM | GI50 (MDA-MB-231 breast) 1320 nM | GI50 (KM12 colon) 557 nM | GI50 (OVCAR-4 ovarian) 4570 nM | GI50 (NCI-H23 lung) 815 nM | GI50 (A498 renal) 32100 nM | GI50 (NCI-H460 lung) 954 nM | GI50 (MDA-MB-468 breast) 1120 nM | GI50 (NCI/ADR-RES ovarian) > 100000 nM | GI50 (UO-31 renal) 4200 nM | GI50 (T-47D breast) 2910 nM
91600 nM: TGI (HOP-92 NSCLC)
16700 nM: TGI (U251 CNS)
86300 nM: TGI (SK-MEL-2 melanoma)
5290 nM: TGI (MDA-MB-468 breast)
active: GI50 (MALME-3M melanoma) 336 nM | GI50 (MCF7 breast) 394 nM | GI50 (K-562 leukemia) 369 nM | GI50 (SNB-75 CNS) 217 nM | GI50 (HL-60(TB) leukemia) 291 nM | GI50 (U251 CNS) 353 nM | GI50 (SR leukemia) 277 nM | GI50 (MDA-MB-435) 187 nM | GI50 (OVCAR-3 ovarian) 287 nM | GI50 (M14 melanoma) 376 nM | GI50 (CCRF-CEM leukemia) 413 nM
